Our source for the IC50 values is patent US11149011B2, “Compounds and methods for IDO and TDO modulation, and indications therefor” (Plexxikon Inc., priority 2018, dated 2021).

In test [1] the target is T1, TDO-expressing HEK293 cell clones (Homo sapiens, UniProt P48775).
T1 construct: expressed in transfected cells; host or cells: HEK293
The experiment in a line: Cell based kynurenine assay, TDO-expressing HEK293 cell clones. Conditions: HEK293 cells, 24 hours of incubation, geometric mean; read-out: HEK293 TDO Kynurenine GMean IC50 (μM) (Cellular Assay). Summed up:
(§1)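 IC50s come from nonlinear regression of % inhibition of kynurenine in culture supernatant after 24 hours of compound exposure. Controls were 0.2% DMSO-treated cells and media alone. Cells were stable human IDO1- or TDO-expressing HEK293 clones (CMV promoter), plated at 2.5×10^4 per well.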

For test [2], the target named is T2, IDO1 (Homo sapiens, UniProt P14902).
T2 construct: His tag (N); made in house; host or cells: E. coli
Put plainly: IDO enzymatic assay. In kind it is biochemical. Conditions: geometric mean; read-out: IDO1 GMean: IC50 (μM) (Biochemical Assay). In outline: (§2)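 Kynurenine formed after TCA hydrolysis (30 min, 50 °C) was quantified relative to full-reaction and no-enzyme controls, and IC50s were fitted. TDO reactions used 1 nM enzyme with 350 μM Trp and 0.4 μM methylene blue for 70 min; IDO reactions used 6 nM enzyme, 10 μM Trp, 5 μM methylene blue for 20 min; both at pH 6.5, room temperature.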

Test [3] has as its target T3, IDO1-expressing HEK293 cell clones (Homo sapiens, UniProt P14902).
T3 construct: expressed in transfected cells; host or cells: HEK293
Put plainly: Cell based kynurenine assay, IDO1-expressing HEK293 cell clones. Conditions: HEK293 cells, 24 hours of incubation, geometric mean; read-out: HEK293 IDO1 Kynurenine GMean IC50 (μM) (Cellular Assay). In outline: as §1

Test [4] addresses T4, TDO (Homo sapiens, UniProt P48775).
T4 construct: His tag (N); made in house; host or cells: E. coli
The experiment in a line: TDO enzymatic assay. Conditions: geometric mean; read-out: TDO GMean: IC50 (μM) (Biochemical Assay). In outline: as §2

Bounds are passed on as bounds.

T3 sequence (P14902 whole entry): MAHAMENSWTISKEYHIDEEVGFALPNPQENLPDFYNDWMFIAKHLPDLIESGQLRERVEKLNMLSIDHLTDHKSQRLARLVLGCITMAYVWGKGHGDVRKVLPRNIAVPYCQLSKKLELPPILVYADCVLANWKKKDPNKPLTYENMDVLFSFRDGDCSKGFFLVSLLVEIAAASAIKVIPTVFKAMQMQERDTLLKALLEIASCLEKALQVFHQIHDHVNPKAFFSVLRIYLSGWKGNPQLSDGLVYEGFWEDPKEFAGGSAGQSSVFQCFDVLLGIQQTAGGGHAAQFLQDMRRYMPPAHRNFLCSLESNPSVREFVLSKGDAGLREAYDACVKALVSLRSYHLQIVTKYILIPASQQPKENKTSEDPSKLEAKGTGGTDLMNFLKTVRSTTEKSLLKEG
T2 sequence (P14902 whole entry): as above
T4 sequence (P48775 whole entry): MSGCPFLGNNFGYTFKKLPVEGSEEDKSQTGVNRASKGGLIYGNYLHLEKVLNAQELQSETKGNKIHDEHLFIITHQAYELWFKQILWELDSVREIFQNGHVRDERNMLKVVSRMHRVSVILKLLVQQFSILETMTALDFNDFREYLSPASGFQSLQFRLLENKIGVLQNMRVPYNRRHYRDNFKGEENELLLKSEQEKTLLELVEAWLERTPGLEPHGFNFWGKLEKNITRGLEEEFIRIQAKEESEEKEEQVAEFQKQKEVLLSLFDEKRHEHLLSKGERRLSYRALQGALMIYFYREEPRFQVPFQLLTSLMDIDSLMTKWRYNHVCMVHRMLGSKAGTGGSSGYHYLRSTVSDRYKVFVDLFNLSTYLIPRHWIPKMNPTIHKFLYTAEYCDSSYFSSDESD
T1 sequence (P48775 whole entry): as above

Take `CC(C)(C1CCN(C(=O)NCC2CCC2)CC1)C(O)c1cc(Cl)cc2[nH]ncc12` (centres unmarked) [Compound P-0092, 4-(1-(6-chloro-1H-indazol-4-yl)-1-hydroxy-2-methylpropan-2-yl)-N-(cyclobutylmethyl)piperidine-1-carboxamide]: the IC50 in test [1], in test [2], in test [3] and in test [4] was 0.0001 to 10 µM each time.
For the molecule `CONC(=O)N1CCC(C(C)(C)C(O)c2cc(Cl)cc3[nH]ncc23)CC1` (centres unmarked) [Compound P-0093, 4-(1-(6-chloro-1H-indazol-4-yl)-1-hydroxy-2-methylpropan-2-yl)-N-methoxypiperidine-1-carboxamide], the 50% inhibitory concentration (IC50) – broadly, the concentration that gives 50% inhibition – in test [1] is 0.0001 to 10 µM; in test [2], 0.0001 to 10 µM; in test [3] it was greater than 10 µM; in test [4], 0.0001 to 10 µM.
Turning to `CC(C)(C1CCN(C(=O)NC2CC(F)(F)C2)CC1)C(O)c1cc(Cl)cc2[nH]ncc12` (centres unmarked) [Compound P-0094, 4-(1-(6-chloro-1H-indazol-4-yl)-1-hydroxy-2-methylpropan-2-yl)-N-(3,3-difluorocyclobutyl)piperidine-1-carboxamide], the IC50 in test [1], in test [2], in test [3] and in test [4] was 0.0001 to 10 µM throughout.
As for `N#CC1CCN(c2cc(Cl)cc3cn[nH]c23)CC1` [Compound P-0097, 1-(5-chloro-1H-indazol-7-yl)piperidine-4-carbonitrile], the IC50 in test [1], in test [2], in test [3] and in test [4] was 0.0001 to 10 µM each time.
`CS(=O)(=O)N1CC=C(c2cc(Cl)cc3cn[nH]c23)CC1` [Compound P-0098, 5-chloro-7-(1-(methylsulfonyl)-1,2,3,6-tetrahydropyridin-4-yl)-1H-indazole]: the IC50 in test [1], in test [2], in test [3] and in test [4] was 0.0001 to 10 µM throughout.
For `OC1(c2cc(Cl)cc3cn[nH]c23)CC(C2CC2)(C2CC2)C1` [Compound P-0108, 1-(5-chloro-1H-indazol-7-yl)-3,3-dicyclopropylcyclobutan-1-ol], the IC50 in test [1], in test [2], in test [3] and in test [4] was 0.0001 to 10 µM in each case.
For the molecule `CC(C)(C1CCN(C(=O)NCCF)CC1)C(O)c1cc(Cl)cc2[nH]ncc12` (centres unmarked) [Compound P-0110, 4-(1-(6-chloro-1H-indazol-4-yl)-1-hydroxy-2-methylpropan-2-yl)-N-(2-fluoroethyl)piperidine-1-carboxamide], the half-maximal inhibitory concentration (IC50) in test [1] was 0.0001 to 10 µM; in test [2], 0.0001 to 10 µM; in test [3], greater than 10 µM; in test [4], 0.0001 to 10 µM.
As for `CC(C)(C1CCN(C(=O)NC2CCC(F)(F)CC2)CC1)C(O)c1cc(Cl)cc2[nH]ncc12` (centres unmarked) [Compound P-0112, 4-(1-(6-chloro-1H-indazol-4-yl)-1-hydroxy-2-methylpropan-2-yl)-N-(4,4-difluorocyclohexyl)piperidine-1-carboxamide], the IC50 in test [1], in test [2], in test [3] and in test [4] was 0.0001 to 10 µM in each case.
`CC(C)(C1CCN(C(=O)N[C@@H]2CCOC2)CC1)C(O)c1cc(Cl)cc2[nH]ncc12` (stereo partly drawn) [Compound P-0113, 4-(1-(6-chloro-1H-indazol-4-yl)-1-hydroxy-2-methylpropan-2-yl)-N-((R)-tetrahydrofuran-3-yl)piperidine-1-carboxamide]: the IC50 in test [1], in test [2], in test [3] and in test [4] was 0.0001 to 10 µM each time.
Consider `CC(C)(C1CCN(C(=O)N[C@H]2CCOC2)CC1)C(O)c1cc(Cl)cc2[nH]ncc12` (stereo partly drawn) [Compound P-0114, 4-(1-(6-chloro-1H-indazol-4-yl)-1-hydroxy-2-methylpropan-2-yl)-N-((S)-tetrahydrofuran-3-yl)piperidine-1-carboxamide], for which the concentration for half-maximal inhibition (IC50) in test [1], in test [2], in test [3] and in test [4] was 0.0001 to 10 µM in each case.
As to `CC(C)(C1CCN(C(=O)NC[C@H]2CCCO2)CC1)C(O)c1cc(Cl)cc2[nH]ncc12` (stereo partly drawn) [Compound P-0115, 4-(1-(6-chloro-1H-indazol-4-yl)-1-hydroxy-2-methylpropan-2-yl)-N-(((R)-tetrahydrofuran-2-yl)methyl)piperidine-1-carboxamide], the IC50 in test [1], in test [2], in test [3] and in test [4] was 0.0001 to 10 µM each time.
On to `CC(C)(C1CCN(C(=O)NCc2ccc(C#N)nc2)CC1)C(O)c1cc(Cl)cc2[nH]ncc12` (centres unmarked) [Compound P-0116, 4-(1-(6-chloro-1H-indazol-4-yl)-1-hydroxy-2-methylpropan-2-yl)-N-((6-cyanopyridin-3-yl)methyl)piperidine-1-carboxamide], for which the half-maximal inhibitory concentration (IC50) in test [1], in test [2], in test [3] and in test [4] was 0.0001 to 10 µM in each case.
As for `CC(C)(C1CCN(C(=O)NCc2ccc(F)cn2)CC1)C(O)c1cc(Cl)cc2[nH]ncc12` (centres unmarked) [Compound P-0117, 4-(1-(6-chloro-1H-indazol-4-yl)-1-hydroxy-2-methylpropan-2-yl)-N-((5-fluoropyridin-2-yl)methyl)piperidine-1-carboxamide], the IC50 in test [1], in test [2], in test [3] and in test [4] was 0.0001 to 10 µM throughout.
Turning to `CC(C)(C1CCN(C(=O)NCc2ccc(C#N)cc2)CC1)C(O)c1cc(Cl)cc2[nH]ncc12` (centres unmarked) [Compound P-0118, 4-(1-(6-chloro-1H-indazol-4-yl)-1-hydroxy-2-methylpropan-2-yl)-N-(4-cyanobenzyl)piperidine-1-carboxamide], the half-inhibitory concentration (IC50) in test [1], in test [2], in test [3] and in test [4] was 0.0001 to 10 µM throughout.
As for `CC(C)(C1CCN(C(=O)NC2(C#N)CC2)CC1)C(O)c1cc(Cl)cc2[nH]ncc12` (centres unmarked) [Compound P-0119, 4-(1-(6-chloro-1H-indazol-4-yl)-1-hydroxy-2-methylpropan-2-yl)-N-(1-cyanocyclopropyl)piperidine-1-carboxamide], the IC50 was 0.0001 to 10 µM in test [1], 0.0001 to 10 µM in test [2], greater than 10 µM in test [3] and 0.0001 to 10 µM in test [4].
As to `CC(C)(C1CCN(C(=O)Nc2ccc(C#N)nc2)CC1)[C@H](O)c1cc(Cl)cc2cn[nH]c12` [Compound P-0120, (S)-4-(1-(5-chloro-1H-indazol-7-yl)-1-hydroxy-2-methylpropan-2-yl)-N-(6-cyanopyridin-3-yl)piperidine-1-carboxamide], the IC50 in test [1], in test [2], in test [3] and in test [4] was 0.0001 to 10 µM each time.
Regarding `CCONC(=O)N1CCC(C(C)(C)[C@H](O)c2cc(Cl)cc3cn[nH]c23)CC1` [Compound P-0121, (S)-4-(1-(5-chloro-1H-indazol-7-yl)-1-hydroxy-2-methylpropan-2-yl)-N-ethoxypiperidine-1-carboxamide], the IC50 in test [1], in test [2], in test [3] and in test [4] was 0.0001 to 10 µM each time.
